# Measurements published in patent US12383539B2 (Cavion, Inc., priority 2018, dated 2025).
# Legend:
# [1] = system: patients with essential tremor; assay: T-CALM: Patient Global Impression of Change (PGIC); assay type: in vivo, human; conditions: for PGIC score, LS mean (SE) / PGIC score, LS mean difference from placebo (95% CI): ANCOVA
# Source text: Treatment success as measured by PGIC was summarized using descriptive statistics.
# The Patient Global Impression of Change (PGIC) will quantify a patient's impression of improvement or decline over time with respect to ET treatment (see, e.g., Guy, Assessment Manual for Psychopharmacology. Rockville, MD: Department of Health, Education, and Welfare Public Health Service Alcohol, Drug Abuse, and Mental Health Administration, 1976). The patient will use the PGIC scale to assess current health status versus initiation of treatment and calculate the difference.
# [2] = system: patients with essential tremor; assay: T-CALM: ECG, vital signs, laboratory and examination safety assessments; assay type: in vivo, human
# Procedure: Electrocardiogram results were calculated as the average of the triplicate records at each time point. Baseline was defined as the mean of the triplicate values obtained pre-dose at Day 1. If this value was not available, the mean of the triplicate records obtained at screening were used.
# Safety procedures involved collection of all TEAEs (treatment-emergent adverse events) coded into the Medical Dictionary for Regulatory Activities (MedDRA) version 20. Adverse events were classified by maximum severity, drug-related adverse events, serious adverse events, and adverse events leading to patient discontinuation.
# [3] = Food effect: MR2 capsules fed vs fasted; assay type: in vivo, human; conditions: MR2 CX-8998, single 8 mg dose
# Source text: Subjects will be screened for study eligibility within 28 days before administration of the first dose of study drug. Subjects who meet the study eligibility criteria will be admitted to the clinical research unit in the afternoon of the day before administration of the first dose of study drug (Period 1/Day −1).
# [4] = system: patients with essential tremor; assay: T-CALM: TETRAS performance subscale (TETRAS-PS); conditions: for TETRAS-PS total score, change from baseline to Day 28, LS mean difference from placebo (95% CI) / TETRAS-PS total score, change from baseline to Day 28, LS mean (SE): ANCOVA; for TETRAS-PS total score, change from baseline to Day 28, LS mean (SE): multiple imputation
structure (smiles),measurement,setting,value
CC(C)c1ccc(CC(=O)N[C@H](C)c2ccc(OCC(F)(F)F)cn2)cc1 [CX-8998],"PGIC score −3-very much worse: subjects, number (%)",[1]; Day 15,0
same,"PGIC category 0 No change, number (%) of patients","[1]; Day 15, N = 39",11 (28%)
same,"PGIC category 1 Minimally improved, number (%) of patients","[1]; Day 15, N = 39",17 (44%)
same,"PGIC category 2 Much improved, number (%) of patients","[1]; Day 15, N = 39",8 (21%)
same,"PGIC category 3 Very much improved, number (%) of patients","[1]; Day 15, N = 39",1 (3%)
same,"PGIC category −1 Minimally worse, number (%) of patients","[1]; Day 15, N = 39",1 (3%)
same,"PGIC category −2 Much worse, number (%) of patients","[1]; Day 15, N = 39",1 (3%)
same,"PGIC category −3 Very much worse, number (%) of patients","[1]; Day 15, N = 39",0
same,"PGIC: No Change, number of subjects","[1]; Day 15, total 39",11
same,"PGIC: Worsened, number of subjects","[1]; Day 15, total 39",2
same,"PGIC score, LS mean (SE)",[1]; Day 15,0.9 (0.17)
same,"PGIC score, LS mean difference from placebo (95% CI)",[1]; Day 15,"0.7 (0.2, 1.1)"
same,"PGIC score 0-no change: subjects, number (%)",[1]; Day 28,14 (36%)
same,"PGIC score 1-minimally improved: subjects, number (%)",[1]; Day 28,10 (26%)
same,"PGIC score 2-much improved: subjects, number (%)",[1]; Day 28,7 (18%)
same,"PGIC score 3-very much improved: subjects, number (%)",[1]; Day 28,3 (8%)
same,"PGIC score (rescaled −3 to 3), Mean (SD)",[1]; Day 28,1 (1.3)
same,"PGIC score (rescaled −3 to 3), Median (minimum, maximum)",[1]; Day 28,"1 (−3, 3)"
same,"PGIC score −1-minimally worse: subjects, number (%)",[1]; Day 28,1 (3%)
same,"PGIC score −2-much worse: subjects, number (%)",[1]; Day 28,1 (3%)
same,"PGIC score −3-very much worse: subjects, number (%)",[1]; Day 28,1 (3%)
same,"PGIC: Improved, number of subjects","[1]; Day 28, total 37",20
same,"PGIC: No Change, number of subjects","[1]; Day 28, total 37",14
same,"PGIC: Worsened, number of subjects","[1]; Day 28, total 37",3
same,"PGIC score, LS mean (SE)",[1]; Day 28,0.8 (0.19)
same,"PGIC score, LS mean difference from placebo (95% CI)",[1]; Day 28,"0.4 (−0.1, 0.9)"
same,"PGIC category 0 No change, number (%) of patients","[1]; Day 28, N = 39",14 (36%)
same,"PGIC category 1 Minimally improved, number (%) of patients","[1]; Day 28, N = 39",10 (26%)
same,"PGIC category 2 Much improved, number (%) of patients","[1]; Day 28, N = 39",7 (18%)
same,"PGIC category 3 Very much improved, number (%) of patients","[1]; Day 28, N = 39",3 (8%)
same,"PGIC category −1 Minimally worse, number (%) of patients","[1]; Day 28, N = 39",1 (3%)
same,"PGIC category −2 Much worse, number (%) of patients","[1]; Day 28, N = 39",1 (3%)
same,"PGIC category −3 Very much worse, number (%) of patients","[1]; Day 28, N = 39",1 (3%)
same,integrated analysis of electrocardiogram outliers,"[2]; T-CALM, efficacious doses",no CVS safety signals
same,clinical laboratory parameters vs placebo,[2]; in vivo,No clinically meaningful differences
same,"vital signs, ECG, neurological and physical examinations",[2]; in vivo,No clinically significant abnormalities
same,effect of fed state on overall exposure (AUC),[3],does not appear to significantly impact overall exposure
same,effect of fed vs fasted state on absorption,[3],"impacts early absorption of the CX-8998, but does not appear to significantly impact late absorption"
same,"responders: improvement of at least 5 points by TETRAS-PS score, %",[4]; Day 15,(30.8%)
same,"TETRAS-PS change from baseline 0 change: subjects, number (%)","[4]; Day 15, N = 39",2 (5.1%)
same,"TETRAS-PS change from baseline >0 to 1 point improvement: subjects, number (%)","[4]; Day 15, N = 39",3 (7.7%)
same,"TETRAS-PS change from baseline >0 to 1 point worsening: subjects, number (%)","[4]; Day 15, N = 39",2 (5.1%)
same,"TETRAS-PS change from baseline >1 to 2.5 point improvement: subjects, number (%)","[4]; Day 15, N = 39",4 (10.3%)
same,"TETRAS-PS change from baseline >1 to 2.5 point worsening: subjects, number (%)","[4]; Day 15, N = 39",5 (12.8%)
same,"TETRAS-PS change from baseline >2.5 to 5 point improvement: subjects, number (%)","[4]; Day 15, N = 39",10 (25.6%)
same,"TETRAS-PS change from baseline >2.5 to 5 point worsening: subjects, number (%)","[4]; Day 15, N = 39",2 (5.1%)
same,"TETRAS-PS change from baseline >5 to 10 point improvement: subjects, number (%)","[4]; Day 15, N = 39",8 (20.5%)
same,"TETRAS-PS change from baseline >5 to 10 point worsening: subjects, number (%)","[4]; Day 15, N = 39",0
same,"TETRAS-PS change from baseline >10 point improvement: subjects, number (%)","[4]; Day 15, N = 39",3 (7.7%)
same,"TETRAS-PS change from baseline >10 point worsening: subjects, number (%)","[4]; Day 15, N = 39",0
same,"responders: improvement of at least 5 points by TETRAS-PS score, %",[4]; Day 28,(43.2%)
same,"responders: improvement of at least 5 points by TETRAS-PS score, number","[4]; Day 28, N 37",16
same,"TETRAS-PS change from baseline 0 change: subjects, number (%)","[4]; Day 28, N = 37",1 (2.6%)
same,"TETRAS-PS change from baseline >0 to 1 point improvement: subjects, number (%)","[4]; Day 28, N = 37",6 (15.4%)
same,"TETRAS-PS change from baseline >0 to 1 point worsening: subjects, number (%)","[4]; Day 28, N = 37",2 (5.1%)
same,"TETRAS-PS change from baseline >1 to 2.5 point improvement: subjects, number (%)","[4]; Day 28, N = 37",5 (12.8%)
same,"TETRAS-PS change from baseline >1 to 2.5 point worsening: subjects, number (%)","[4]; Day 28, N = 37",1 (2.6%)
same,"TETRAS-PS change from baseline >2.5 to 5 point improvement: subjects, number (%)","[4]; Day 28, N = 37",11 (28.2%)
same,"TETRAS-PS change from baseline >2.5 to 5 point worsening: subjects, number (%)","[4]; Day 28, N = 37",1 (2.6%)
same,"TETRAS-PS change from baseline >5 to 10 point improvement: subjects, number (%)","[4]; Day 28, N = 37",8 (20.5%)
same,"TETRAS-PS change from baseline >5 to 10 point worsening: subjects, number (%)","[4]; Day 28, N = 37",0
same,"TETRAS-PS change from baseline >10 point improvement: subjects, number (%)","[4]; Day 28, N = 37",4 (10.3%)
same,"TETRAS-PS change from baseline >10 point worsening: subjects, number (%)","[4]; Day 28, N = 37",0
same,"TETRAS-PS scored by investigators (in person), change from baseline, LS mean (±SE)","[4]; Day 28, analysis of Example 25",−4.8±0.80
same,"TETRAS-PS scored by independent video raters, change from baseline, LS mean (±SE)","[4]; Day 28, primary endpoint",−1.8±0.81
same,"TETRAS-PS total score, Mean (SD)","[4]; Day 28, Investigator Rated",23.6 (5.50)
same,"TETRAS-PS total score, change from baseline to Day 28, Mean (SD)",[4]; Independent Video Raters,−1.6 (4.36)
same,"TETRAS-PS total score, change from baseline to Day 28, Median",[4]; Independent Video Raters,−1.5
same,"TETRAS-PS total score, change from baseline to Day 28, LS mean difference from placebo (95% CI)",[4]; Independent Video Raters,"0.5 (−1.5, 2.5)"
same,"TETRAS-PS total score, change from baseline to Day 28, LS mean (SE)",[4]; Independent Video Raters,−1.8 (0.81)
same,"TETRAS-PS total score, change from baseline to Day 28, LS mean difference from placebo (95% CI)",[4]; Investigator Rated,"−2.0 (−4.0, 0.0)"
same,"TETRAS-PS total score, change from baseline to Day 28, LS mean (SE)",[4]; Investigator Rated,−4.8 (0.80)
same,"TETRAS-PS total score, change from baseline to Day 28, Mean (SD)","[4]; subgroup No Concurrent Tremor Medication at Day 1, Independent Video Raters",−2.5 (5.33)
